For data set [1], the system named is Madurella mycetomatis. Kind of data set: Antifungal activity against Madurella mycetomatis MM55 by XTT assay. Format: functional, organism-based. (In general: Formazan colour is commonly taken as a measure of viable cells.)
In data set [2] the test system is Madurella mycetomatis. Kind of data set: Antifungal activity against Madurella mycetomatis P1 by XTT assay. Format: functional.
Data set [3] relates to Madurella mycetomatis. Kind of data set: Antifungal activity against Madurella mycetomatis SO1 by XTT assay. Format: functional.
In data set [4] the test system is Madurella mycetomatis. Kind of data set: Antifungal activity against Madurella mycetomatis I1 by XTT assay. Format: functional.
In data set [5] the test system is Madurella mycetomatis. Kind of data set: Antifungal activity against Madurella mycetomatis I11 by XTT assay. Format: functional.
Data set [6] is described as follows: Selectivity index, ratio of IC50 for mouse NIH3T3 cells to IC50 for Madurella mycetomatis MM55. Format: toxicity. The note with it: read-out: Ratio IC50.
In data set [7] the test system is Madurella mycetomatis. Kind of data set: Antifungal activity against Madurella mycetomatis AL1 by XTT assay. Format: functional.
In data set [8] the test system is Madurella mycetomatis. Kind of data set: Antifungal activity against Madurella mycetomatis I3 by XTT assay. Format: functional.
Data set [9] concerns Madurella mycetomatis. Kind of data set: Antifungal activity against Madurella mycetomatis MM50 by XTT assay. Format: functional.
A short description of data set [10]: Cytotoxicity against mouse NIH3T3 cells incubated for 5 days by MTT assay. Format: toxicity, cell-based.
Data set [11] deals with Madurella mycetomatis. Kind of data set: Antifungal activity against Madurella mycetomatis Peru72012 by XTT assay. Format: functional.
Data set [12] deals with Madurella mycetomatis. Kind of data set: Antifungal activity against Madurella mycetomatis CBS247.48 by XTT assay. Format: functional.

≈ marks a conversion by molar mass, not a printed value.

One may read the IC50 as the midpoint of a concentration-inhibition curve. A word on the MIC: it is the least concentration at which growth counts as inhibited.

With `OCCN1CCN(c2cc(-c3ccsc3)c3nc(-c4ccccc4F)cn3n2)CC1`, the 50% inhibitory concentration (IC50) in [1] (Madurella mycetomatis, MM55) amounted to 1.3 µM. Further, the MIC was 8 µM (≈ 3.39 µg/mL) in data set [1] (Madurella mycetomatis, MM55); 8 µM (≈ 3.39 µg/mL) in data set [2]; 8 µM (≈ 3.39 µg/mL) in [3]; 8 µM (≈ 3.39 µg/mL) in [4]; 4 µM (≈ 1.69 µg/mL) in data set [5]; 8 µM (≈ 3.39 µg/mL) in data set [7]. For the same molecule, the MIC in [8] came out at 8 µM (≈ 3.39 µg/mL); in [9] it was 4 µM (≈ 1.69 µg/mL); in [11] it was 8 µM (≈ 3.39 µg/mL); in [12], 8 µM (≈ 3.39 µg/mL). For the same molecule, in data set [6], the selectivity ratio was 4. Besides, the IC50 at 5 days in data set [10] turned out to be 10.5 µM.
Turning to `OCCN1CCN(c2cc(-c3ccsc3)c3nc(-c4ccccc4)cn3n2)CC1`, the IC50 in [1] (Madurella mycetomatis, MM55) is 2.6 µM. Moreover, the MIC in [1] (Madurella mycetomatis, MM55) amounted to 4 µM (≈ 1.62 µg/mL); in [2], 8 µM (≈ 3.24 µg/mL); in [3] it was 16 µM (≈ 6.49 µg/mL); in data set [4], 8 µM (≈ 3.24 µg/mL); in [5], 8 µM (≈ 3.24 µg/mL); in data set [7], 8 µM (≈ 3.24 µg/mL). The MIC in data set [8], in data set [9], in [11] and in data set [12] was 8 µM (≈ 3.24 µg/mL) throughout. Further, in data set [6], the selectivity ratio was determined as 3.4. For the same molecule, the IC50 at 5 days in data set [10] was 13.1 µM.
For `CN1CCN(c2cc(-c3cccc4[nH]ccc34)c3nc(-c4ccccc4)cn3n2)CC1` [listing 1 of 2 here], in [1], the IC50 amounted to 4.8 µM. Besides, the MIC was 8 µM (≈ 3.27 µg/mL) in [1] (Madurella mycetomatis, MM55); 8 µM (≈ 3.27 µg/mL) in data set [2]; 16 µM (≈ 6.54 µg/mL) in data set [3]; 8 µM (≈ 3.27 µg/mL) in [4]; > 16 µM in data set [5]; 16 µM (≈ 6.54 µg/mL) in [7]. In addition, the MIC in data set [8] turned out to be 16 µM (≈ 6.54 µg/mL); in data set [9], 16 µM (≈ 6.54 µg/mL); in [11] it was 8 µM (≈ 3.27 µg/mL); in [12] it was 16 µM (≈ 6.54 µg/mL). In [6], the selectivity ratio stood at 2.8. For the same molecule, the IC50 at 5 days in data set [10] is 9.9 µM.
In turn, `CN1CCN(c2cc(-c3cccc4[nH]ccc34)c3nc(-c4ccc(F)cc4)cn3n2)CC1` displayed an IC50 in [1] of 1.7 µM. Moreover, the MIC in data set [1] (Madurella mycetomatis, MM55) turned out to be 8 µM (≈ 3.41 µg/mL); in data set [2] it was 8 µM (≈ 3.41 µg/mL); in [3], 16 µM (≈ 6.82 µg/mL); in data set [4], 8 µM (≈ 3.41 µg/mL); in data set [5], 8 µM (≈ 3.41 µg/mL); in data set [7] it was 8 µM (≈ 3.41 µg/mL). Moreover, the MIC in data set [8], in [9], in data set [11] and in [12] was 8 µM (≈ 3.41 µg/mL) each time. In data set [6], the selectivity ratio was 7.5. In data set [10], this molecule had a concentration for half-maximal inhibition (IC50) at 5 days of 12.9 µM.
In the case of `CN1CCN(c2cc(-c3cccs3)c3nc(-c4ccc(F)cc4)cn3n2)CC1`, the concentration for half-maximal inhibition (IC50) in [1] (Madurella mycetomatis, MM55) stood at 8.5 µM.
Same read-out and setting: with `OCCN1CCN(c2cc(-c3cccc4[nH]ccc34)c3nc(-c4ccc(F)cc4)cn3n2)CC1` the figure was > 16 µM.
On the same count and under the same terms, with `COc1ccccc1-c1cn2nc(N3CCN(C)CC3)cc(-c3ccsc3)c2n1` the figure was 5.8 µM; with `CC(C)CCn1cc(-c2cc(N3CCN(C)CC3)nn3cc(-c4ccc(F)cc4)nc23)cn1`, 10.3 µM; with `CN1CCN(c2cc(-c3cccc4[nH]ccc34)c3nc(-c4ccccc4F)cn3n2)CC1`, 9.2 µM.
Consider `CN1CCN(c2cc(-c3cnc(N4CCN(C)CC4)nc3)c3nc(-c4ccc(F)cc4)cn3n2)CC1`, for which 2.9 µM corresponded to half-maximal inhibition in data set [1] (Madurella mycetomatis, MM55) (IC50). Further, the MIC in [1] (Madurella mycetomatis, MM55) worked out at 8 µM (≈ 3.9 µg/mL); in [2], 4 µM (≈ 1.95 µg/mL); in data set [3], 4 µM (≈ 1.95 µg/mL); in [4] it was 4 µM (≈ 1.95 µg/mL); in [5] it was 8 µM (≈ 3.9 µg/mL); in data set [7], 4 µM (≈ 1.95 µg/mL). Moreover, the MIC is 8 µM (≈ 3.9 µg/mL) in data set [8], 4 µM (≈ 1.95 µg/mL) in data set [9], 4 µM (≈ 1.95 µg/mL) in [11] and 4 µM (≈ 1.95 µg/mL) in data set [12]. The selectivity ratio in data set [6] stood at 6.8. Further, 12.3 µM corresponded to half-maximal inhibition in [10] (IC50 at 5 days).
As for `CN1CCN(c2cc(-c3cccc4[nH]ccc34)c3nc(-c4ccccc4)cn3n2)CC1` [listing 2 of 2 here], it took 8.3 µM to reach half-maximal inhibition in data set [1] (Madurella mycetomatis, MM55) (IC50).
In data set [1] (Madurella mycetomatis, MM55), `OCCN1CCN(c2cc(-c3ccsc3)c3nc(-c4ccc(F)cc4)cn3n2)CC1` yielded an IC50 of 5.3 µM.
With `CN1CCN(c2cc(-c3cccc4[nH]ccc34)c3nc(-c4cccc(F)c4)cn3n2)CC1`, half-maximal inhibition in data set [1] (Madurella mycetomatis, MM55) (IC50) required 1.8 µM. The MIC in [1] (Madurella mycetomatis, MM55) is 8 µM (≈ 3.41 µg/mL); in data set [2] it was 8 µM (≈ 3.41 µg/mL); in data set [3] it was 16 µM (≈ 6.82 µg/mL); in data set [4], 16 µM (≈ 6.82 µg/mL); in [5] it was 8 µM (≈ 3.41 µg/mL); in [7], 8 µM (≈ 3.41 µg/mL). For the same molecule, the MIC in data set [8] turned out to be 8 µM (≈ 3.41 µg/mL); in data set [9], 8 µM (≈ 3.41 µg/mL); in [11] it was 16 µM (≈ 6.82 µg/mL); in data set [12] it was 8 µM (≈ 3.41 µg/mL). The selectivity ratio in data set [6] was 4.8. In data set [10], the IC50 at 5 days stood at 10.1 µM.
Molecule `CN1CCN(c2cc(-c3cnc(N4CCN(C)CC4)nc3)c3nc(-c4ccccc4F)cn3n2)CC1` showed an IC50 in data set [1] (Madurella mycetomatis, MM55) of 4 µM. Further, the MIC stood at 16 µM (≈ 7.8 µg/mL) in data set [1] (Madurella mycetomatis, MM55); 4 µM (≈ 1.95 µg/mL) in data set [2]; 4 µM (≈ 1.95 µg/mL) in [3]; 4 µM (≈ 1.95 µg/mL) in data set [4]; 4 µM (≈ 1.95 µg/mL) in [5]; 4 µM (≈ 1.95 µg/mL) in data set [7]. The MIC was determined as 16 µM (≈ 7.8 µg/mL) in [8], 4 µM (≈ 1.95 µg/mL) in data set [9], 4 µM (≈ 1.95 µg/mL) in data set [11] and 4 µM (≈ 1.95 µg/mL) in [12]. Further, the selectivity ratio in [6] is 2. Besides, inhibition in data set [10] was half-maximal at 9.6 µM (IC50 at 5 days).

(Values after ChEMBL document CHEMBL5614400, “Emerging therapeutics: The imidazo[1,2-b]pyridazine scaffold as a novel drug candidate for eumycetoma, a neglected tropical disease” (Eur J Med Chem, 2024).)
